Series [1] can be described thus: Antitumor activity evaluation test (1), cell viability by Cell Counting Kit-8 (WST-8). The series is classed as cell-based, human. The note with it: peptide 25 μM, 48 hours, relative to culture medium containing no peptide = 100%; read-out: A2058 cell viability (survival rate). The protocol: (§1) The antitumor activity of the sample peptides synthesized in Test Example 1 was evaluated using human-derived cultured tumor cells as targets.
(§2) Specifically, currently commercially available human melanoma (A2058) cell lines were used as test tumor cells. In addition, a normal human mammary epithelial cell culture line (MCF-12F) was used for comparison. Here, culture solutions of respective cells are as follows. • (1) A2058 cells:
(§3) DMEM culture medium including 2 mM L-glutamine, 0.1 mM of non-essential amino acids, 50 units/mL of penicillin, 50 μg/mL of streptomycin, and 10% fetal bovine serum (FBS) (product, commercially available from Wako Pure Chemical Industries, Ltd.). • (2) MCF-12F cells:
(§4) DMEM/F12 culture medium including 20 ng/mL of recombinant EGF, 10 μg/mL of insulin, 0.5 μg/mL of hydrocortisone, and 10% FBS (product, commercially available from Wako Pure Chemical Industries, Ltd.).
(§5) A2058 cells and MCF-12F cells were cultured and prepared so that the number of cells per well in a 96-well plate was about 5×10^3. An amount of the culture medium in this case was 100 μL per well.
(§6) Next, the 96-well plate was placed in a CO2 incubator and pre-incubated under conditions of 37° C. and 5% CO2 for about 1 day (21 hours to 24 hours).
(§7) Then, peptide-containing test culture mediums for each concentration were prepared so that the concentrations of the sample peptides to be evaluated were 12.5 μM and 25 μM, and supplied to wells (that is, wells after the pre-incubation) in which 90μL of cells to be evaluated were cultured in each well. Then, the 96-well plate was returned to the CO2 incubator and incubated under conditions of 37° C. and 5% CO2 for 48 hours.
(§8) Here, the number of test wells (n) at peptide concentrations in peptide addition test groups was set to 3. Therefore, the value of the result shown in the following table is an average value of the results obtained in three test wells. First, the cell viability (%) was determined as follows.
(§9) After the incubation for 48 hours was completed, the culture medium in each well was replaced with 100 μL of a fresh culture medium containing no peptide, and additionally, 10μL of a cell proliferation measurement reagent “Cell Counting Kit-8” (product, commercially available from Dojindo Molecular Technologies, Inc.) containing a “water-soluble tetrazolium salt (WST-8)” as a coloring reagent was added to each well. Then, the 96-well plate was returned to the CO2 incubator and incubated under conditions of 37° C., and 5% CO2 for 1.5 hours to 2 hours.
(§10) After the incubation was completed, the cell culture solution to which the reagent was added was collected and the cell viability (%) was evaluated according to a colorimetric method in which an absorbance at a wavelength of 450 nm (value corrected by the absorbance at a wavelength of 650 nm: A450-A650) was measured based on the reduction of the tetrazolium salt. Specifically, a measured value (measured absorbance) of a comparative test group in which the above incubation was performed for 48 hours simply in a culture medium containing no peptide was set as a cell viability of 100%, and the cell viability (%) was calculated from the measured absorbance of each test cell line as a relative value.
(§11) Specifically, a value (value multiplied by 100 for convenience) obtained by dividing the cell viability of target tumor cells (here, A2058 cells) when the sample peptides were added at a concentration of 12.5 μM or 25 μM measured as described above by the cell viability of comparative normal cells (here, MCF-12F cells) measured under the same conditions, that is,
(§12) {(A2058 cell viability)/(MCF-12F cell viability)}×100 was calculated as a specific cell viability of the tumor cells, and the test tumor cells selective antitumor activity with respect to normal cells was evaluated using such a specific cell viability as an index.
(In general: Formazan colour is commonly taken as a measure of viable cells.)

Series [2] deals with human melanoma (A2058) cell lines. The description is as above. The format is cell-based. The note with it: 48 hours, A2058 versus normal MCF-12F cells. How it is done:
as §1, §2, §3, §4, §5, §6, §7, §8, §9, §10, §11, §12

Series [3] in a line: Antitumor activity evaluation test (2), cell viability by Cell Counting Kit-8 (WST-8). To be noted: peptide 25 μM, 48 hours, 37° C. without CO2, relative to no peptide = 100%; read-out: cell viability of SW480 cells. The format is cell-based, human. How it is done:
as §5, §6, §7, §8, §9, §10
(§13) The antitumor activity and antitumor cell selective antitumor activity of Samples 2 and 6 of Test Example 1, with respect to a plurality of types of human-derived cultured tumor cells were evaluated.
(§14) Specifically, currently commercially available human melanoma cell lines (SK-MELS), human non-small cell lung cancer cell lines (H2444), and human colorectal cancer cell lines (SW480) were used as test tumor cells. In addition, the above MCF-12F cells were used as normal cells for comparison.
(§15) Leibovitz's L-15 culture medium including 100 unit/mL of penicillin, 100 μg/mL of streptomycin, and 10% FBS (product, commercially available from Gibco)
(§16) Here, in the evaluation test using SW480 cell lines, the cells were cultured under conditions of 37° C. and without CO2.
(§17) Then, the cell viability was calculated in the same processes as in Test Example 2. Here, in this test example, the antitumor activity of Sample 6 with respect to SK-MELS cells, the antitumor activity of Sample 2 with respect to H2444 cells, and the antitumor activity of Sample 2 and Sample 6 with respect to SW480 cells were evaluated.
(§18) Next, a specific cell viability was calculated in the same processes as in Test Example 2. That is,
(§19) {(Test tumor cell survival rate)/(MCF-12F cell viability)}×100 was calculated as a specific cell viability of the tumor cells, and a test tumor cells selective antitumor activity with respect to normal cells was evaluated using such a specific cell viability as an index. […]

Series [4] deals with human colorectal cancer cell lines (SW480). The description is as above. The format is cell-based. To be noted: SW480 versus normal MCF-12F cells. How it is done: as §5, §6, §7, §8, §9, §10, §13, §14, §15, §16, §17, §18, §19
Experiment in series [5]: as above
The series is classed as cell-based, human. To be noted: peptide 25 μM, 48 hours, relative to no peptide = 100%; read-out: cell viability of H2444 cells. How it is done: as §5, §6, §7
(§20) Here, the number of test wells (n) at peptide concentrations in peptide addition test groups was set to 3. Therefore, the value of the result shown in the following table is an average value of the results obtained in three test wells. First, the cell viability (%) was determined as follows. […]
as §10
(§21) The antitumor activity and antitumor cell selective antitumor activity of Samples 2 and 6 of Test Example 1, with respect to a plurality of types of human-derived cultured tumor cells were evaluated. […]
(§22) Then, the cell viability was calculated in the same processes as in Test Example 2. […]

The test system of series [6] is human non-small cell lung cancer cell lines (H2444). The description is as above. The series is classed as cell-based. The note with it: H2444 versus normal MCF-12F cells. The protocol: as §5, §6, §7, §20, §10, §21, §22
Experiment in series [7]: as above
The format is cell-based, human. The note with it: peptide 25 μM, 48 hours, relative to no peptide = 100%; read-out: cell viability of SK-MELS cells. How it is done: as §5, §6, §7, §20, §10, §21, §22

The subject of series [8] is human melanoma cell lines (SK-MELS). Described as above. The format is cell-based. The note with it: SK-MEL5 versus normal MCF-12F cells. The protocol: as §5, §6, §7, §20, §10, §21, §22

Residues, ends and D or L forms follow the SMILES beside them.

What is called viability is the share of living cells, or the viability signal relative to a control.

`CC[C@H](C)[C@H](NC(=O)[C@H](CC(N)=O)NC(=O)[C@@H](NC(=O)[C@@H](N)CC(C)C)C(C)C)C(=O)N[C@H](C(=O)N[C@@H](CC(C)C)C(=O)N[C@@H](CO)C(=O)N[C@@H](CC(=O)O)C(=O)N[C@@H](CC(C)C)C(=O)N[C@@H](CC(C)C)C(=O)N[C@H](C(=O)NCC(=O)N[C@@H](C)C(=O)N[C@@H](C)C(=O)N[C@@H](Cc1ccc(O)cc1)C(=O)N[C@@H](CC(C)C)C(=O)N[C@@H](C)C(=O)N[C@@H](CC(N)=O)C(=O)N[C@H](C(=O)N[C@@H](CC(C)C)C(=O)N[C@@H](CC(C)C)C(=O)N[C@@H](CCCNC(=N)N)C(=O)N[C@@H](CCCCN)C(=O)N[C@@H](CCCCN)C(=O)N[C@@H](CCCNC(=N)N)C(=O)N[C@@H](CCCNC(=N)N)C(=O)N[C@@H](CCC(N)=O)C(=O)N[C@@H](CCCNC(=N)N)C(=O)N[C@@H](CCCNC(=N)N)C(=O)N[C@@H](CCCNC(=N)N)C(N)=O)C(C)C)[C@@H](C)O)[C@@H](C)O` [Sample 2] (H-LVNITLSDLLTGAAYLANVLLRKKRRQRRR-NH2; N-terminus assumed): the viability came out at 0.1% in series [1], 2.3% in series [3] and 2.1% in series [5]. The results for the “Specific cell viability {(A2058 cell viability)/(MCF-12F cell viability)}×100” value in series [2] (peptide 12.5 μM) and in series [2] (peptide 25 μM) were 4.79 and 1.96, respectively. Besides, the “Specific cell viability {(Test tumor cell survival rate)/(MCF-12F cell viability)}×100” value in series [4] (peptide 12.5 μM) amounted to 2.98; in series [4] (peptide 25 μM), 0.45; in series [6] (peptide 12.5 μM), 0.22; in series [6] (peptide 25 μM), 0.41.
As for `CSCC[C@H](NC(=O)[C@H](C)NC(=O)[C@@H](N)CC(C)C)C(=O)N[C@@H](C)C(=O)N[C@@H](C)C(=O)N[C@@H](C)C(=O)N[C@@H](C)C(=O)N[C@@H](Cc1c[nH]c2ccccc12)C(=O)NCC(=O)N[C@H](C(=O)N[C@@H](CO)C(=O)N[C@@H](CC(C)C)C(=O)N[C@@H](CC(C)C)C(=O)N[C@@H](CC(C)C)C(=O)NCC(=O)N[C@@H](CC(C)C)C(=O)N[C@@H](CC(C)C)C(=O)N1CCC[C@H]1C(=O)N[C@@H](C)C(=O)N[C@@H](CC(C)C)C(=O)NCC(=O)N[C@@H](CCCNC(=N)N)C(=O)N[C@@H](CCCCN)C(=O)N[C@@H](CCCCN)C(=O)N[C@@H](CCCNC(=N)N)C(=O)N[C@@H](CCCNC(=N)N)C(=O)N[C@@H](CCC(N)=O)C(=O)N[C@@H](CCCNC(=N)N)C(=O)N[C@@H](CCCNC(=N)N)C(=O)N[C@@H](CCCNC(=N)N)C(N)=O)C(C)C` [Sample 6] (H-LAMAAAAWGVSLLLGLLPALGRKKRRQRRR-NH2; N-terminus assumed), the viability in series [1] came out at 0.5%; in series [3] it was 20.2%; in series [7] it was 1.9%. Besides, the results for the “Specific cell viability {(A2058 cell viability)/(MCF-12F cell viability)}×100” value in series [2] (peptide 12.5 μM) and in series [2] (peptide 25 μM) were 40 and 5.88, respectively. For the same compound, the “Specific cell viability {(Test tumor cell survival rate)/(MCF-12F cell viability)}×100” value in series [4] (peptide 12.5 μM) is 1.14; in series [4] (peptide 25 μM), 2.38; in series [8] (peptide 12.5 μM), 0.25; in series [8] (peptide 25 μM) it was 0.22.

For the origin of these results see US20220411480A1, “ANTITUMOR PEPTIDE AND USE THEREOF” (TOAGOSEI CO., LTD, priority 2018, published 2022).
